The subject of one data set is ERK pathway. Put plainly: cells. The data set is classed as cell-based, Human. As to conditions: for IC50: Homo sapiens, HEK293. The protocol: The effects of the inhibitors on the activation of ERK pathway were determined in TPA (12-O-tetradecanoylphorbol-13-acetate)-stimulated cells using the AP-1 luciferase reporter gene assay system. Activating protein-1 (AP-1) is the nuclear transcription factor which is a heterodimeric protein downstream of MAPK composed of dimers of the Fos and Jun proteins. The stable AP-1 dimers bind to DNA recognition elements (AP-1 response elements) and mediate transcriptional induction. AP-1 controls a number of cellular events including differentiation, proliferation and apoptosis. Simultaneously, the expression of AP-1 can be regulated in response to different extracellular stimuli, such as cytokines, growth factors, stress, and bacterial and viral infections. ERK pathway is the most important mediator which is closely related to these responses. Activation of ERK pathway causes induction of fos gene, and then the product heterodimerizes with the Jun protein to form the AP-1 dimers. These newly formed heterodimers can enhance the expression of c-jun through AP-1 binding sites in the c-jun promoter. TPA can increase levels of AP-1 proteins through activation of the ERK pathway.
3.4.2. AP-1 Luciferase Reporter Gene Assay
pAP1-Luc was constructed with pGL3-basic (Promega, Madison, WI. USA) and a fragment including the AP-1 response element (2× TRE) and T7 promoter. HEK 293 cells in 96-well plates were cultured at 5% CO2 at 37 °C in DMEM containing 10% FBS. When the confluence was up to 80%, cells were transinfected with pAP1-Luc using lipofectamine 2000 (Life Technologies, Carlsbad, CA. USA). At 24 h post transinfection, individual compounds with different concentrations (5, 10, 20, 30 μM) were added into cells using three wells for each concentration used. After incubation for 1 h, TPA (50 nM) was added. The cells were harvested after 4 h and luciferase activity was measured by using luciferase assay kit (Promega) with a luminometer.

Another data set concerns the target phosphorylated MEK1 (Homo sapiens, UniProt Q02750). Put plainly: MEK1 binding assay (HTRF, tracer displacement). The following applies: for inhibition at 2 µM: read-out: % binding (2 µM); for inhibition at 20 µM: read-out: % binding (20 µM). A digest of the protocol: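 5 nM GST-tagged phosphorylated MEK1, 2 nM Eu anti-GST antibody and 20 nM kinase tracer 236 incubated with compound 30 min at room temperature in the dark.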
(In TR-FRET formats the signal depends on donor and acceptor labels being close together.)

Data set [1] deals with EV71. In words: microbe, parasite or virus in culture. As to conditions: for EC50: Enterovirus A, EV71, RD. The protocol: (§1) To further examine the functional effects, we selected EV71 to perform the antiviral analysis. […] CC50 is the median cytotoxic concentration measured with the MTT assay.
(§2) RD cells were cultured in DMEM and up to 70%–80% confluence in 96-well plates. Compounds were added into the culture medium for 1 h prior to virus infection using four wells for each concentration used. The compounds were added at the following concentrations: 1.25, 2.5, 5, 10, 20, 40 μM. Then cells were infected withEV71 (a clinical strain denoted as EV71-BC08, GU475127) at a multiplicity of infection (MOI) of 1. Virus controls (untreated wells of infected cells), cell controls (cells and drugs only, using the same dilution range for each compound as the test wells) were included on the plate. The cytopathic effect (CPE) were examined at every 12 h intervals post-infection by using phase-contrast microscopy. […] The cytotoxicity (CC50) was assayed by the MTT method.

Data set [2] has as its system EV71. In words: microbe, parasite or virus in culture. The following applies: for EC50: Enterovirus A, EV71, HEK293. The protocol:
as §1, §2

Data set [3] relates to unphosphorylated human MEK1. More on the design: method as in PMID 16199156. As to conditions: inhibition of activation of unphosphorylated human MEK1; cited from earlier work.
[4] abbreviates: HTRF binding to GST tagged phosphorylated MEK1, read-out: IC50.

Read-outs that look alike come from different tables or passages of the source.

phosphorylated MEK1, sequence (Q02750 whole entry): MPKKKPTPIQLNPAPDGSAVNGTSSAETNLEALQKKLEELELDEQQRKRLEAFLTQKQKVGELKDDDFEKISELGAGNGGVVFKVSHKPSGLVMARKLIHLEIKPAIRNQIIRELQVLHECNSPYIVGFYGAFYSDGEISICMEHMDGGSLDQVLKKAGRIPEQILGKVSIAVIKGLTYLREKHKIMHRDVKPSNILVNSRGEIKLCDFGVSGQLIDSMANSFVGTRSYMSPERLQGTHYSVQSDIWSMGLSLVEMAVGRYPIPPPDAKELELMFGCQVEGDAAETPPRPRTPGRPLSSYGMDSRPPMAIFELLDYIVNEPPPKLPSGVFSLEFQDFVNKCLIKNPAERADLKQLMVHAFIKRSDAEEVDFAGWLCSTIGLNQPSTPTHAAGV

What is called melting point is the temperature of the solid-liquid transition. What is called IC50 is the concentration at which inhibition is half-maximal. The term EC50 denotes the concentration that produces a half-maximal response. Low readings indicate an effect from little substance, high ones a need for much substance. On to `Cc1c(Cc2ccccc2)c(=O)oc2cc(OC(=O)N(C)C)ccc12` [Compound 13, 3-Benzyl-4-methyl-2-oxo-2H-chromen-7-yl dimethylcarbamate], for which the melting point was 130 to 133 °C. Further, in the data set on ERK pathway, the “inhibition of ERK pathway activation (in words)” value (from here on “inhibition … (in words)”) is “more efficiently than U0126” and the IC50 was determined as 5.4 ± 1.26 µM. At phosphorylated MEK1, the concentration for half-maximal inhibition (IC50) was 0.223 µM, the inhibition at 2 µM amounted to 75.6% and the inhibition at 20 µM was 95.2%. In the data set on EV71 [1], the “TI (CC50/IC50)” value came out at 60.8 and the half-maximal effective concentration (EC50) came out at 2.5 µM. Further, in the data set on EV71 [2], the “TI (CC50/IC50)” value came out at 29.85 and the EC50 was 3.29 µM.

As to `CCCC(=O)Oc1ccc2c(C)c(Cc3ccccc3)c(=O)oc2c1` [Compound 42, 3-Benzyl-4-methyl-2-oxo-2H-chromen-7-yl butyrate], the melting point is 139 to 140 °C. In addition, in the data set on ERK pathway, the concentration for half-maximal inhibition (IC50) was 88.7 ± 2.52 µM. In addition, the half-inhibitory concentration (IC50) on phosphorylated MEK1 (setting [4]) worked out at 0.353 µM. On phosphorylated MEK1, the inhibition at 2 µM amounted to 53.8% and the inhibition at 20 µM came to 68.4%.

`CCc1c(Cc2ccc(F)cc2)c(=O)oc2cc(OC(=O)c3ccccc3)ccc12` [Compound 67, 4-Ethyl-3-(4-fluorobenzyl)-2-oxo-2H-chromen-7-yl benzoate] yielded a melting point of 70 to 71 °C. Also, in the data set on ERK pathway, the IC50 stood at 64.6 ± 1.74 µM. For the same compound, on phosphorylated MEK1, the “binding affinity (in words)” value is “inactive”, the inhibition at 2 µM is 44.6% and the inhibition at 20 µM was 21.3%.

For `Cc1c(Cc2ccc(F)cc2)c(=O)oc2cc(OC(=O)N(C)C)ccc12` [Compound 17, 3-(4-Fluorobenzyl)-4-methyl-2-oxo-2H-chromen-7-yl dimethylcarbamate], the melting point lay in the range of 149 to 150 °C. Besides, in the data set on ERK pathway, the “inhibition … (in words)” value is listed as “more efficiently than U0126” and it took 4.06 ± 3.26 µM to reach half-maximal inhibition (IC50). For the same compound, at phosphorylated MEK1, the IC50 is 0.408 µM, the inhibition at 2 µM is 71.6% and the inhibition at 20 µM is 82.1%. In the data set with EV71 [1], the “TI (CC50/IC50)” value was 16.36 and a half-maximal effect (EC50) was put at 5.25 µM.

For the compound `CCC(=O)Oc1ccc2c(C)c(Cc3ccc(F)cc3)c(=O)oc2c1` [Compound 38, 3-(4-Fluorobenzyl)-4-methyl-2-oxo-2H-chromen-7-yl propionate], the melting point fell in the range of 115 to 116 °C. This compound had an IC50 in the data set with ERK pathway of 38.1 ± 1.26 µM. The IC50 at phosphorylated MEK1 (setting [4]) worked out at 0.19 µM. In addition, at phosphorylated MEK1, the inhibition at 2 µM stood at 75.7% and the inhibition at 20 µM amounted to 90.8%.

On to `CCCc1c(Cc2ccc(F)cc2)c(=O)oc2cc(OC(C)=O)ccc12` [Compound 33, 3-(4-Fluorobenzyl)-2-oxo-4-propyl-2H-chromen-7-yl acetate], for which the melting point fell in the range of 150 to 151 °C. In addition, in the data set with ERK pathway, the “inhibition … (in words)” value was “more efficiently than U0126” and the half-maximal inhibitory concentration (IC50) stood at 11.6 ± 1.2 µM. Moreover, at phosphorylated MEK1 (setting [4]), the 50% inhibitory concentration (IC50) amounted to 0.252 µM. Besides, at phosphorylated MEK1, the inhibition at 2 µM is 61.4% and the inhibition at 20 µM was determined as 72.2%. The midpoint of the response in the data set with EV71 [1], the EC50, lay at 18.5 µM. This compound registered a 50% effective concentration (EC50) in the data set with EV71 [2] of 12.8 µM.

In the case of `Cc1c(Cc2ccc(F)cc2)c(=O)oc2cc(OC(=O)N(C)C)ccc12` [Compound G8935], in data set [3], the IC50 was 0.3 µM.

For `CC(=O)Oc1ccc2c(C)c(Cc3ccccc3)c(=O)oc2c1` [Compound 28, 3-Benzyl-4-methyl-2-oxo-2H-chromen-7-yl acetate], the melting point is 165 to 166 °C. The compound further returned an IC50 in the data set with ERK pathway of 37.6 ± 1.1 µM. The concentration for half-maximal inhibition (IC50) on phosphorylated MEK1 (setting [4]) stood at 0.52 µM. At phosphorylated MEK1, the inhibition at 2 µM is 72.2% and the inhibition at 20 µM was 96.5%.

For the compound `CCc1c(Cc2ccc(F)cc2)c(=O)oc2cc(OC(=O)N(C)C)ccc12` [Compound 18, 4-Ethyl-3-(4-fluorobenzyl)-2-oxo-2H-chromen-7-yl dimethylcarbamate], in the data set with ERK pathway, the “inhibition … (in words)” value was “more efficiently than U0126” and the half-maximal inhibitory concentration (IC50) turned out to be 23.4 ± 1.11 µM. At phosphorylated MEK1, the IC50 was determined as 0.0546 µM, the “binding affinity (in words)” value was “active”, the inhibition at 2 µM came to 98.2% and the inhibition at 20 µM turned out to be 99.4%. In addition, in the data set on EV71 [1], the “TI (CC50/IC50)” value is recorded as 7.29 and the midpoint of the response, the EC50, lay at 10 µM. Further, in the data set with EV71 [2], the “TI (CC50/IC50)” value was found to be 3.37 and the EC50 amounted to 19.4 µM.

The compound `CCCc1c(Cc2ccc(F)cc2)c(=O)oc2cc(OC(=O)N(C)C)ccc12` [Compound 19, 3-(4-Fluorobenzyl)-2-oxo-4-propyl-2H-chromen-7-yl dimethylcarbamate] returned a melting point of 82 to 84 °C. In the data set with ERK pathway, the “inhibition … (in words)” value is “more efficiently than U0126” and half-maximal inhibition (IC50) was put at 4.31 ± 2.14 µM. Moreover, at phosphorylated MEK1, the half-inhibitory concentration (IC50) came to 0.158 µM, the inhibition at 2 µM worked out at 66.2% and the inhibition at 20 µM was 87.6%. Moreover, in the data set on EV71 [1], the “TI (CC50/IC50)” value turned out to be 190 and the concentration giving a half-maximal response (EC50) worked out at 3.98 µM. In addition, in the data set on EV71 [2], the “TI (CC50/IC50)” value is 65.24 and the half-maximal effective concentration (EC50) is 4.85 µM.

The compound `CCCc1c(Cc2ccc(F)cc2)c(=O)oc2cc(OC(=O)CC)ccc12` [Compound 40, 3-(4-Fluorobenzyl)-2-oxo-4-propyl-2H-chromen-7-yl propionate] showed a melting point of 94 to 95 °C. Further, 87.5 ± 1.98 µM corresponded to half-maximal inhibition with ERK pathway (IC50). Moreover, at phosphorylated MEK1 (setting [4]), the IC50 stood at 0.176 µM. At phosphorylated MEK1, the inhibition at 2 µM came to 72.2% and the inhibition at 20 µM came out at 78.5%.

(Values after article PMC6269873, “Substituted 3-Benzylcoumarins as Allosteric MEK1 Inhibitors: Design, Synthesis and Biological Evaluation as Antiviral Agents” (Molecules, 2013).)
